Source: the CheMixHub viscosity set
Where “and” joins values, the source holds several entries; their conditions need not be identical. Equal values may be shown once.

Test: xn = mol fraction of the nth substance listed

CC(=O)C(=O)[O-].[Na+] + O
viscosity [mPa·s], 101 kPa
Settings | x1 = 0.00036 | x1 = 0.000648 | x1 = 0.000936 | x1 = 0.00137 | x1 = 0.00151 | x1 = 0.0018
298.15 K | 0.8972 | 0.9038 | 0.9104 | 0.9173 | 0.9206 | 0.9267
303.15 K | 0.8044 | 0.811 | 0.8176 | 0.826 | 0.8308 | 0.8369
308.15 K | 0.7257 | 0.7308 | 0.7375 | 0.7474 | 0.7507 | 0.7569
313.15 K | 0.6602 | 0.6669 | 0.6735 | 0.682 | 0.6868 | 0.6931

CC(C)CC(=O)O + O
viscosity [mPa·s], 101.33 kPa
Settings | 293.15 K | 313.15 K
x1 = 0.0036 | 1.106 | 0.724
x1 = 0.0073 | 1.161 | 0.742

CC1COC(=O)O1 (stereo unspecified) + O
298.15 K, 101 kPa
Settings | viscosity [mPa·s]
x1 = 0.0025 | 0.9114
x1 = 0.005 | 0.9267
x1 = 0.01 | 0.959
x1 = 0.02 | 1.028
x1 = 0.025 | 1.064
x1 = 0.0307 | 1.099

CCC(N)(CO)CO + O
viscosity [mPa·s], 101.33 kPa
Settings | x1 = 0.0364 | x1 = 0.0916 | x1 = 0.185 | x1 = 0.261 | x1 = 0.377
303.15 K | 1.765 | 4.993 | 21.96 | 56.54 | 199.2
313.15 K | 1.356 | 3.435 | 12.89 | 30.13 | 85.62
323.15 K | 1.053 | 2.504 | 8.22 | 17.36 | 44.4

CCCCn1cc[n+](C)c1.O=S(=O)([O-])C(F)(F)F + O
101 kPa
Settings | viscosity [mPa·s]
308.15 K, x2 = 0.3999 | 19.95
323.15 K, x2 = 0.901 | 3.005

CCOCCn1cc[n+](C)c1.C[C@@H](O)[C@H](N)C(=O)[O-] + O
Settings | viscosity [mPa·s]
298.15 K, 100 kPa, x2 = 0.492 | 991.4

CC[C@H](C)[C@H](N)C(=O)O + O
viscosity, 101 kPa
Settings | 293.15 K | 298.15 K | 303.15 K | 308.15 K | 313.15 K | 318.15 K
x1 = 0.00045 | 1.008 mPa·s | 0.896 mPa·s and 0.896 mPa·s | 0.8028 mPa·s and 0.8027 mPa·s | 0.7244 mPa·s and 0.7243 mPa·s | 0.6578 mPa·s and 0.6577 mPa·s | 0.6022 mPa·s and 0.602 mPa·s
x1 = 0.0009 | 1.019 mPa·s | 0.9057 mPa·s and 0.9059 mPa·s | 0.8118 mPa·s and 0.8118 mPa·s | 0.733 mPa·s and 0.7328 mPa·s | 0.6658 mPa·s and 0.6657 mPa·s | 0.6098 mPa·s and 0.6096 mPa·s
x1 = 0.00135 | 1.03 mPa·s | 0.9164 mPa·s and 0.9165 mPa·s | 0.8217 mPa·s and 0.8217 mPa·s | 0.7422 mPa·s and 0.742 mPa·s | 0.6745 mPa·s and 0.6744 mPa·s | 0.6181 mPa·s and 0.6178 mPa·s
x1 = 0.0018 | 1.042 mPa·s | 0.9273 mPa·s and 0.9275 mPa·s | 0.8319 mPa·s and 0.8318 mPa·s | 0.7516 mPa·s and 0.7515 mPa·s | 0.6834 mPa·s and 0.6832 mPa·s | 0.6265 mPa·s and 0.6261 mPa·s
x1 = 0.002245 | 1.054 mPa·s | 0.9386 mPa·s and 0.9387 mPa·s | 0.8423 mPa·s and 0.8422 mPa·s | 0.7613 mPa·s and 0.7612 mPa·s | 0.6925 mPa·s and 0.6923 mPa·s | 0.6351 mPa·s and 0.6347 mPa·s
x1 = 0.002695 | 1.067 mPa·s | 0.9502 mPa·s and 0.9502 mPa·s | 0.8531 mPa·s and 0.853 mPa·s | 0.7714 mPa·s and 0.7713 mPa·s | 0.702 mPa·s and 0.7018 mPa·s | 0.6438 mPa·s and 0.6434 mPa·s

CNC(N)=O + O
viscosity [mPa·s], 101 kPa
Settings | x1 = 9.02e-05 | x1 = 0.00018 | x1 = 0.00027 | x1 = 0.00036 | x1 = 0.0005402 | x1 = 0.00108 | x1 = 0.001799 | x1 = 0.004484
293.15 K | 1.003 | 1.01 | 1.002 | 1.007 | 1.008 | 1.017 | 1.013 | 1.036
298.15 K | 0.8881 | 0.8936 | 0.8933 | 0.8922 | 0.8992 | 0.9009 | 0.8963 | 0.9188
303.15 K | – | 0.7986 | 0.7953 | 0.798 | 0.8003 | 0.8032 | 0.8075 | 0.8214

O=C(O)C(O)C(O)C(=O)O (stereo unspecified) + O
viscosity, 100 kPa
Settings | 298.15 K | 303.15 K | 308.15 K | 313.15 K | 318.15 K
x1 = 0.003486 | 0.9322 mPa·s and 0.9322 mPa·s | 0.8367 mPa·s and 0.8367 mPa·s | 0.7533 mPa·s and 0.7533 mPa·s | 0.6829 mPa·s and 0.6829 mPa·s | 0.6209 mPa·s and 0.6209 mPa·s
x1 = 0.006751 | 0.9765 mPa·s and 0.9765 mPa·s | 0.8735 mPa·s and 0.8735 mPa·s | 0.7864 mPa·s and 0.7864 mPa·s | 0.7098 mPa·s and 0.7098 mPa·s | 0.6435 mPa·s and 0.6435 mPa·s
x1 = 0.009818 | 1.038 mPa·s and 1.038 mPa·s | 0.9206 mPa·s and 0.9206 mPa·s | 0.8235 mPa·s and 0.8235 mPa·s | 0.7408 mPa·s and 0.7408 mPa·s | 0.6707 mPa·s and 0.6707 mPa·s
x1 = 0.0127 | 1.088 mPa·s and 1.088 mPa·s | 0.9696 mPa·s and 0.9696 mPa·s | 0.8645 mPa·s and 0.8645 mPa·s | 0.7756 mPa·s and 0.7756 mPa·s | 0.6996 mPa·s and 0.6996 mPa·s

O=C([O-])[O-].[K+].[K+] + O
viscosity [mPa·s], 101 kPa
Settings | 303.15 K | 308.15 K | 313.15 K
x1 = 0.002 | 0.839 | 0.769 | 0.703
x1 = 0.005 | 0.889 | 0.814 | 0.745
x1 = 0.009 | 0.944 | 0.864 | 0.793

O=S(=O)([O-])[O-].[Ca+2] + O
100 kPa
Settings | viscosity [mPa·s]
303.15 K, x1 = 0.000281 | 0.7976
323.15 K, x1 = 0.000279 | 0.557

O=[N+]([O-])[O-].O=[N+]([O-])[O-].O=[N+]([O-])[O-].[Ce+3] + O
viscosity [mPa·s], 101.3 kPa
Settings | x1 = 0.009125 | x1 = 0.01824 | x1 = 0.02724 | x1 = 0.03472 | x1 = 0.05339 | x1 = 0.06671 | x1 = 0.0744
293.15 K | 1.312 | 1.718 | 2.423 | 3.281 | 6.899 | 13.02 | 19.48
298.15 K | 1.174 | 1.529 | 2.169 | 2.911 | 5.937 | 10.99 | 16.06
308.15 K | 0.9509 | 1.249 | 1.734 | 2.299 | 4.599 | 8.055 | 11.34

O=[N+]([O-])[O-].O=[N+]([O-])[O-].[Mg+2] + O
viscosity [mPa·s], 100 kPa
Settings | x1 = 0.01 | x1 = 0.03 | x1 = 0.05 | x1 = 0.07
298.15 K | 1.138 | 1.6 | 2.409 | 4.609
323.15 K | 0.707 | 0.9853 | 1.479 | 2.709
